The test system of assay [1] is +SA mammary epithelial cells. Kind of assay: MTT assay of +SA cells (antiproliferative activity). It is filed as cell-based, mouse. The note with it: for IC50: 24 hours treatment, read-out: IC50 antiproliferative activity against +SA mammary epithelial cells; for antiproliferative activity against +SA mammary tumor cells (in words): described from FIG. 32 / text. How it is done: The antiproliferative activities of Compounds 3-44 against the highly metastatic malignant +SA mammary epithelial cells were evaluated by MTT assay. Materials for the assay were purchased from Sigma Chemical Company (St. Louis, Mo.) unless otherwise stated. The highly malignant +SA mouse mammary epithelial cell line was serially passaged at subconfluent cell density. The +SA mammary tumor cell line was derived from an adenocarcinoma that developed spontaneously in a BALB/c female mouse. +SA cells were maintained in serum-free defined medium consisting of Dulbecco's modified Eagle's medium (DMEM)/F12 containing 5 mg/mL bovine serum albumin (BSA), 10 […], 100 U/mL soybean trypsin inhibitor, 100 U/mL penicillin G, 0.1 mg/mL streptomycin, […], and 10 ng/mL epidermal growth factor. For subculturing, cells were rinsed twice with sterile Ca2+ and Mg2+-free phosphate buffered saline (PBS) and incubated in 0.05% trypsin containing 0.025% EDTA in PBS for 5 min at 37° C. The released cells were centrifuged, resuspended in fresh media and counted using hemocytometer. A stock solution of the compounds was prepared in DMSO. Once dissolved, this solution was added to a small volume of sterile 10% BSA in water and incubated overnight at 37° C. This solution conjugated to BSA was used to prepare various concentrations (0-40 μM) of tocotrienol analogs. DMSO was added to all treatment media such that the final DMSO concentration was the same in all treatment groups within a given experiment and was always less than 0.1%. For cytotoxic studies, cells were seeded at a density of 5×10^4 cells/well (+SA cells) or 1×10^5 cells/well (CL-S1 cells) (6 wells/group) in 24-well culture plates and allowed to grow in their respective control media. After 3 days incubation period (approximately 70% confluency), cells were divided equally into various treatment groups and exposed to their respective treatments for a 24 hours incubation period. Following the 24 hours treatment period, cell viability was measured using the MTT assay.
+SA Mammary epithelial cell viable number was determined by a 3-(4,5-dimethylthiazol-2yl)-2,5-diphenyl tetrazolium bromide (MTT) colorimetric assay. On the assay day, treatment medium was replaced with fresh control medium containing 0.42 mg/mL MTT, and the cells in 24-well plates were incubated at 37° C. for 4 hours. Afterward, the medium was removed, and the MTT crystals were dissolved in isopropyl alcohol (1 mL/well). The optical density of each sample was read at 570 nm on a microplate reader (SpectraCount, Packard BioScience Company), against a blank prepared from cell-free cultures. The number of cells/well was calculated against a standard curve prepared by plating various concentrations of cells, as determined by hemocytometer, at the start of each experiment.
Differences among the various treatment groups in +SA cell cytotoxic studies were determined by analysis of variance (ANOVA) followed by Dunnett's t-test. The difference of P<0.05 was considered to be statistically significant as compared with vehicle-treated controls unless separately described. Linear regression analysis of treatment effects on viable cell number in growth and cytotoxicity studies was used to determine the 50% growth inhibition concentration (IC50) for individual treatments.
(Tetrazolium assays rely on reduction of a dye to a coloured formazan, in cell work by metabolically active cells.)

Assay [2] has as its system MDA-MB-231 human breast cancer cells. In words: Wound-healing assay (cell migration). It is filed as cell-based. How it is done:
The highly metastatic human breast cancer MDA-MB-231 cells were cultured in RPMI 1640 medium containing 10 mM HEPES, 4 mM L-glutamine, 10% fetal bovine serum, penicillin (100 IU/mL), and streptomycin (50 μg/mL), and grown in a 5% CO2 atmosphere at 37° C. Cells were plated onto sterile 24-well and allowed to recover for a confluent cell monolayer formed in each well (>95% confluence). Wounds were then inflicted to each cell monolayer using a sterile 200 μL pipette tip. Media were removed, cells monolayers were washed twice with PBS, and then fresh media containing test compounds were added to each well. Test compounds were prepared in DMSO at 5 μM concentration and added to the plates, each in triplicate using DMSO as negative control. The incubation was carried out for 24 h under serum-starved conditions, after which media was removed and cells were fixed and stained using a staining composition sold under the trade name Diff Quick (Dade Behring Diagnostics, Aguada, Puerto Rico). The stain comprised a fixative reagent containing 1.8 mg/L triarylmethane dye in methyl alcohol; a first solution of 1 g/L xanthene dye, buffer, and sodium azide (0.01%) as preservative; and a second solution of 1.25 g/L Thiazine dye mixture (0.625 g/L azure A and 0.625 g/L methylene blue) and buffer. The number of cells migrated on the scratched wound were counted under the microscope in three or more randomly selected fields (magnification: 400×). Final results are expressed as mean±SEM per 400× field. The wound-healing assay is a simple method for the study of directional cell migration in vitro.
Compounds were tested for their ability to inhibit the migration of the highly metastatic MDA-MB-231 human breast cancer cells in the wound-healing assay using the procedure described above. Compounds 6, 10, 12, 13, 24, 26, 27, and 29 inhibited the migration of more than 50% of the human breast cancer cells MDA-MB-231 in the wound healing assay at 5 μM dose. […] The antimigratory activity of tocotrienols may be enhanced by a terminal aromatic functionality. The presence of electron withdrawing group, such as nitro in Compound 29, may eliminate the antiproliferative activity yet retain the antimigratory activity of the compound. While the electron donating groups, such as OH and OMe found in Compounds 23 and 26, respectively, retained both antiproliferative and antimigratory activities.
Utilizing similar procedures follow-up testing was conducted on a variety of compounds using a range of compound concentrations. The results of follow-up antimigratory testing are shown in FIG. 35B and Table III below with IC50 values calculated using statistical software.

Assay [3] deals with MCF7 human breast cancer cell line. In words: MTT assay of MCF7 cells. It is filed as cell-based. The note with it: Homo sapiens, media containing 1% fetal bovine serum. The method, then: (§1) MDA-MB-231 and MCF7 cells were plated at a density of 8×10^3 cells/well and 10^4 cells/well in 96-well culture plates, respectively. The compounds were fed in serum free media containing 5% and 1% fetal bovine serum for MDA-MB-231 and MCF7 cells, respectively.

The test system of assay [4] is MDA-MB-231 human breast cancer cell line. In words: MTT assay of MDA-MB-231 cells. It is filed as cell-based. The note with it: Homo sapiens, media containing 5% fetal bovine serum. How it is done: as §1
For assay [5], the system named is MCF 10A non-tumorigenic mammary epithelial cells. Kind of assay: MTT assay of MCF10A cells. The note with it: for IC50: Homo sapiens. It counts as cell-based, human. The method, then:
MCF 10A (ATCC cat # CRL-10317) normal human non-tumorigenic mammary epithelial cells were maintained in serum-free defined medium consisting of Dulbecco's modified Eagle's medium (DMEM)/F12 containing 5% horse serum, 1% penicillin/streptomycin, 0.5 μg/mL hydrocortisone, 100 ng/mL cholera toxin, 10 μg/mL insulin, and 20 ng/mL epidermal growth factor (rhEGF). For subculturing, cells were rinsed twice with sterile Ca2+ and Mg2+-free phosphate buffered saline (PBS) and incubated in 0.25% trypsin containing 0.025% EDTA in PBS for 5 min at 37° C. The released cells were centrifuged, re-suspended in fresh media and counted using a hemocytometer. For testing, MCF 10A cells were plated at a density of 10×10^4 cells/well. A stock solution of the compounds was prepared in DMSO. DMSO was added to all treatment media such that the final DMSO concentration was the same in all treatment groups within a given experiment and was always less than 0.1%. The compounds were fed in serum free media. MCF10A mammary epithelial cell's viable number was determined by MTT colorimetric assay. […] IC50 values were calculated by non-linear regression using statistical software. The selectivity index indicated in the table represents the IC50 value for the MCF 10A cell line divided by the IC50 value for the +SA cell line.

Structures are written as SMILES. Where two headings read alike, the source gives them in different places.

The record followed here is US9115145B2, “Tocotrienol derivatives and associated methods” (FIRST TECH INTERNATIONAL LIMITED, priority 2011, dated 2015).

For the compound `CC(C)=CCC/C(C)=C/CC/C(C)=C/CC[C@]1(C)CCc2cc(O)cc(C)c2O1` [Compound 2, δ-tocotrienol, reference compound], the IC50 (commonly the midpoint of a concentration-inhibition curve) in assay [1] was 3 µM; in assay [2] (MDA-MB-231, wound-healing assay, dose response, read-out: IC50 antimigratory activity), over 40 µM. Regarding `CC(C)=CCC/C(C)=C/CC/C(C)=C/CC[C@]1(C)CCc2c3c(c(C)c(C)c2O1)OCN(C)C3` [Compound 3, (R)-2,5,6,8-tetramethyl-8-((3E,7E)-4,8,12-trimethyltrideca-3,7,11-trienyl)-1,2,3,8,9,10-hexahydrochromeno[5,6-e][1,3]oxazine], in assay [1] (Mus musculus, +SA cell), the IC50 lay in the range of 1.2 to 2.2 µM. In the case of `CC(C)=CCC/C(C)=C/CC/C(C)=C/CC[C@]1(C)CCc2c3c(cc(C)c2O1)OCN(C)C3` [Compound 4, (R)-2,6,8-trimethyl-8-((3E,7E)-4,8,12-trimethyltrideca-3,7,11-trienyl)-1,2,3,8,9,10-hexahydrochromeno[5,6-e][1,3]oxazine], in assay [1] (Mus musculus, +SA cell), the IC50 is 1.2 to 2.2 µM. `CCOC(CCN1COc2c(C)c(C)c3c(c2C1)CC[C@@](C)(CC/C=C(\C)CC/C=C(\C)CCC=C(C)C)O3)OCC` [Compound 14, (R)-2-(3,3-diethoxypropyl)-5,6,8-trimethyl-8-((3E,7E)-4,8,12-trimethyltrideca-3,7,11-trienyl)-1,2,3,8,9,10-hexahydrochromeno[5,6-e][1,3]oxazine]: in assay [1], the “antiproliferative activity against +SA mammary tumor cells (in words)” value (“antiproliferative activity” for short) is on record as “significantly decreased activity”. For `CC(C)=CCC/C(C)=C/CC/C(C)=C/CC[C@]1(C)CCc2c3c(c(C)c(C)c2O1)OCN(CC1CCNCC1)C3` [Compound 16, (R)-5,6,8-trimethyl-2-(piperidin-4-ylmethyl)-8-((3E,7E)-4,8,12-trimethyltrideca-3,7,11-trienyl)-1,2,3,8,9,10-hexahydrochromeno[5,6-e][1,3]oxazine], the “antiproliferative activity” value in assay [1] is recorded as “strong activity”. The results for the IC50 in assay [3] and in assay [4] were over 20 µM and 0.8 µM, respectively. Consider `CC(C)=CCC/C(C)=C/CC/C(C)=C/CC[C@]1(C)CCc2c3c(cc(C)c2O1)OCN(CCCCC(=O)O)C3` [Compound 20, 5-((R)-6,8-dimethyl-8-((3E,7E)-4,8,12-trimethyltrideca-3,7,11-trienyl)-9,10-dihydrochromeno[5,6-e][1,3]oxazin-2(1H,3H,8H)-yl)pentanoic acid], for which the “antiproliferative activity” value in assay [1] is recorded as “strong activity but less so than the aforementioned compounds”. In the case of `COc1ccc(CCN2COc3c(C)c(C)c4c(c3C2)CC[C@@](C)(CC/C=C(\C)CC/C=C(\C)CCC=C(C)C)O4)cc1OC` [Compound 23, (R)-2-(3,4-dimethoxyphenethyl)-5,6,8-trimethyl-8-((3E,7E)-4,8,12-trimethyltrideca-3,7,11-trienyl)-1,2,3,8,9,10-hexahydrochromeno[5,6-e][1,3]oxazine], in assay [1], the “antiproliferative activity” value is reported as “very high activity”. Also, the IC50 in assay [3] is over 20 µM; in assay [4] it was over 50 µM; in assay [5] (MCF-10A, MCF10A cells, Table II, non-linear regression, read-out: MCF10A (IC50)), 0.7 µM; in assay [5] (MCF 10A non-tumorigenic cells, Table I, read-out: IC50 MCF 10A) it was 0.7 µM. This compound also yielded a Selectivity index in assay [5] (IC50 for MCF 10A divided by IC50 for +SA cell line) of 0.39. Consider `CC(C)=CCC/C(C)=C/CC/C(C)=C/CC[C@]1(C)CCc2c3c(c(C)c(C)c2O1)OCN(Cc1cccc([N+](=O)[O-])c1)C3` [Compound 28, (R)-5,6,8-trimethyl-2-(3-nitrobenzyl)-8-((3E,7E)-4,8,12-trimethyltrideca-3,7,11-trienyl)-1,2,3,8,9,10-hexahydrochromeno[5,6-e][1,3]oxazine], for which the “antiproliferative activity” value in assay [1] is on record as “significant activity but less so than Compounds 20”. Turning to `CC(C)=CCC/C(C)=C/CC/C(C)=C/CC[C@]1(C)CCc2c3c(cc(C)c2O1)OCN(Cc1cccc([N+](=O)[O-])c1)C3` [Compound 29, (R)-6,8-dimethyl-2-(3-nitrobenzyl)-8-((3E,7E)-4,8,12-trimethyltrideca-3,7,11-trienyl)-1,2,3,8,9,10-hexahydrochromeno[5,6-e][1,3]oxazine], the “antiproliferative activity” value in assay [1] is “inactive”. Moreover, the inhibition (as a rule, the relative decrease from the control value, in per cent) at 5 µM in assay [2] (Homo sapiens, MDA-MB-231, 5 μM dose, 24 h, wound-healing assay) was over 50%. In the case of `CC(C)=CCC/C(C)=C/CC/C(C)=C/CC[C@]1(C)CCc2c(CO)c(O)c(C)c(C)c2O1` [Compound 32, (R)-5-(hydroxymethyl)-2,7,8-trimethyl-2-((3E,7E)-4,8,12-trimethyltrideca-3,7,11-trienyl)chroman-6-ol], the 50% inhibitory concentration (IC50) in assay [1] (Mus musculus, +SA cell) was found to be 2.6 µM. `CC(C)=CCC/C(C)=C/CC/C(C)=C/CC[C@]1(C)CCc2c(CO)c(O)cc(C)c2O1` [Compound 33, (R)-5-(hydroxymethyl)-2,8-dimethyl-2-((3E,7E)-4,8,12-trimethyltrideca-3,7,11-trienyl)chroman-6-ol]: the IC50 in assay [1] (Mus musculus, +SA cell) was at least 6.6 µM. In the case of `CC(C)=CCC/C(C)=C/CC/C(C)=C/CC[C@]1(C)CCc2cc(O)c(CO)c(C)c2O1` [Compound 34, (R)-7-(hydroxymethyl)-2,8-dimethyl-2-((3E,7E)-4,8,12-trimethyltrideca-3,7,11-trienyl)chroman-6-ol], the IC50 in assay [1] (Mus musculus, +SA cell) is at least 6.6 µM.
